Laboratory results published in US12667100B2, “Composition comprising benzylamine acaricide and use thereof” (SHANDONG KANGQIAO BIO-TECHNOLOGY CO., LTD, priority 2021, dated 2026).
Where “and” joins values, the source holds several entries; their conditions need not be identical. Identical values can stand only once. Like-named read-outs stand apart in the source and are kept apart here.

System: Tetranychus cinnabarinus Boi, adult mite
Assay: whole plant or invertebrate
Type: in vivo
Experimental: Test subject: Tetranychus cinnabarinus Boi, adult mite, indoor rearing sensitive strain.
Test condition: 25° C. constant temperature incubator, 60% relative humidity, light L:D=14:10
Test solution formulation: according to the test needs, accurately weigh the test sample more than 50 mg by using an electronic analytical balance, mixed with acetone to the required concentration, according to calculation, the sample of acetone solution added to a volumetric flask, diluted by aqueous solution with 0.1 wt % Tween 80 to obtain the required concentration of the solution.
Test method: One true leaf was removed after cutting the seedlings of beans, and one true leaf was added to the hydroponic glass jar after leaving the leaf to access about 50-150 adult Tetranychus cinnabarinus Boi of the same size, and the mite base was counted the next day. The Airbrush method was used to treat the test material with medicinal spray, 1.5 mL of medicinal spray was sprayed for each treatment, and a blank control was set for three treatments.
After spraying and drying naturally, the treated test material was placed in a constant temperature observation room. 72 hours later, the number of live mites was investigated and the mortality rate was calculated. The Bliss method was used for evaluation, and the theoretical mortality rate could be calculated by the following formula: P=Pm+Pn(1−Pm)
Pm is the mortality rate (%) of the target at a concentration of m for the first active component (active component a); Pn is the mortality rate (%) of the target at a concentration of n for the second active component (active component b).

[1] = Tetranychus cinnabarinus, 72 h, single agent 0.01 mg/L, adult mites, 72 h after spraying, read-out: 72 h mortality rate
[2] = Tetranychus cinnabarinus, 72 h, single agent 0.04 mg/L, adult mites, 72 h after spraying, read-out: 72 h mortality rate
[3] = Tetranychus cinnabarinus, 72 h, single agent 0.2 mg/L, adult mites, 72 h after spraying, read-out: 72 h mortality rate
[4] = Tetranychus cinnabarinus, 72 h, single agent 0.4 mg/L, adult mites, 72 h after spraying, read-out: 72 h mortality rate
[5] = Tetranychus cinnabarinus, 72 h, single agent 0.8 mg/L, adult mites, 72 h after spraying, read-out: 72 h mortality rate
[6] = single agent 0.2 mg/L, adult mites, 72 h after spraying
[7] = single agent 0.4 mg/L, adult mites, 72 h after spraying
[8] = single agent 0.8 mg/L, adult mites, 72 h after spraying
[9] = Tetranychus cinnabarinus, 72 h, read-out: 72 h mortality rate
[10] = single agent 0.01 mg/L, adult mites, 72 h after spraying
[11] = single agent 0.04 mg/L, adult mites, 72 h after spraying
[12] = single agent 1 mg/L, adult mites, 72 h after spraying
[13] = single agent 5 mg/L, adult mites, 72 h after spraying

COC(=O)c1ccccc1CNc1cc(SCC(F)(F)F)c(C)cc1F [Compound A1] showed a mortality at 0.01 µg/mL [1] of 0%, a mortality at 0.04 µg/mL [2] of 0% and a mortality at 0.2 µg/mL [3] of 27.9%. For the same compound, the mortality at 0.4 µg/mL [4] was 40.1%, the mortality at 0.8 µg/mL [5] was 74.6% and the “72 h mortality rate” value [6] was 22.2% and 28.1% and 26.8% and 19.8%. The “72 h mortality rate” value [7] was 40.4% and 43.3% and 41.7% and 42.3% and the “72 h mortality rate” value [8] was 74.3% and 72.6% and 72.7% and 74.1%.

Work on COC(=O)c1ccccc1CNc1cc(SCC(F)(F)F)c(Cl)cc1F [Compound A9] yielded a mortality at 0.01 µg/mL [1] of 0%, a mortality at 0.04 µg/mL [2] of 0% and a mortality at 0.2 µg/mL [3] of 19.8%. The mortality at 0.4 µg/mL [4] was 42.2%, the mortality at 0.8 µg/mL [5] was 62.3% and the “72 h mortality rate” value [6] was 18.5% and 27.5% and 22.1% and 22.4%. The “72 h mortality rate” value [7] was 41.9% and 36.0% and 40.8% and 34.5% and the “72 h mortality rate” value [8] was 64.1% and 67.1% and 64.6% and 65.8%.

Compound CC[C@H](C)[C@H]1O[C@]2(C=C[C@@H]1C)C[C@@H]1C[C@@H](C/C=C(\C)[C@@H](O[C@H]3C[C@H](OC)[C@@H](O[C@H]4C[C@H](OC)[C@@H](O)[C@H](C)O4)[C@H](C)O3)[C@@H](C)/C=C/C=C3\CO[C@@H]4[C@H](O)C(C)=C[C@@H](C(=O)O1)[C@]34O)O2 [avermectin] has a mortality at 0.0005 µg/mL [9] of 0%, a mortality at 0.0025 µg/mL [9] of 14.8% and a mortality at 0.01 µg/mL [9] of 37.3%. It also gave a mortality at 0.02 µg/mL [9] of 70%.

Work on Clc1ccccc1-c1nnc(-c2ccccc2Cl)nn1 [clofentezine] yielded a mortality at 0.04 µg/mL [9] of 0%, a mortality at 0.2 µg/mL [9] of 0% and a mortality at 1 µg/mL [9] of 9.1%. It also gave a mortality at 8 µg/mL [9] of 18.2% and a mortality at 40 µg/mL [9] of 41.3%.

For CCn1nc(C)cc1/C(OC(=O)C(C)(C)C)=C(/C#N)c1ccc(C(C)(C)C)cc1 [cyetpyrafen], the “72 h mortality rate” value [10] was 0%, the “72 h mortality rate” value (single agent 0.05 mg/L, adult mites, 72 h after spraying) was 2.8% and the “72 h mortality rate” value (single agent 0.1 mg/L, adult mites, 72 h after spraying) was 17.0%. The “72 h mortality rate” value [6] was 37.9% and the “72 h mortality rate” value (single agent 0.5 mg/L, adult mites, 72 h after spraying) was 75.5%.

Compound CCOc1cc(C(C)(C)C)ccc1C1COC(c2c(F)cccc2F)=N1 (stereo not drawn) [etoxazole] has a mortality at 0.01 µg/mL [9] of 0%, a mortality at 0.04 µg/mL [9] of 0% and a mortality at 0.2 µg/mL [9] of 9.3%. It also gave a mortality at 0.4 µg/mL [9] of 21.4%, a mortality at 1 µg/mL [9] of 26.6% and a mortality at 5 µg/mL [9] of 43.6%.

C[C@@H]1[C@@H](c2ccc(Cl)cc2)SC(=O)N1C(=O)NC1CCCCC1 [hexythiazox] gave a mortality at 0.04 µg/mL [9] of 0%, a mortality at 0.2 µg/mL [9] of 12.8% and a mortality at 1 µg/mL [9] of 21.3%. For the same compound, the mortality at 8 µg/mL [9] was 36.3% and the mortality at 40 µg/mL [9] was 69.5%.

In the case of C#CCOS(=O)OC1CCCCC1Oc1ccc(C(C)(C)C)cc1 (stereo not drawn) [propargite], the mortality at 0.1 µg/mL [9] is reported as 0%, the mortality at 0.4 µg/mL [9] is reported as 0% and the mortality at 4 µg/mL [9] is reported as 3.9%. For the same compound, the mortality at 25 µg/mL [9] was 34.1%.

With CCC(C)(C)C(=O)OC1=C(c2ccc(Cl)cc2Cl)C(=O)OC12CCCCC2 [spirodiclofen] the “72 h mortality rate” value [10] was 0%, the “72 h mortality rate” value [11] was 0% and the “72 h mortality rate” value [6] was 0%. For the same compound, the “72 h mortality rate” value [7] was 9.4%, the “72 h mortality rate” value [12] was 24.2% and the “72 h mortality rate” value [13] was 56.9%.

In the case of Cc1cc(C)c(C2=C(OC(=O)CC(C)(C)C)C3(CCCC3)OC2=O)c(C)c1 [spiromesifen], the “72 h mortality rate” value [10] is reported as 0%, the “72 h mortality rate” value [11] is reported as 0% and the “72 h mortality rate” value [6] is reported as 0%. The “72 h mortality rate” value [7] was 14.1%, the “72 h mortality rate” value [12] was 30.4% and the “72 h mortality rate” value [13] was 64.9%.
